“And” between values parts separate entries of the source, which are not always exact repeats. Equal entries are not always repeated.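 Tested at 5 concentrations; 48 h exposure; 96-well plates; endpoints linearly interpolated, else capped at highest concentration. GI50 marks 50% less growth. TGI is the concentration that stops growth completely.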
Columns and labels:
Test in all cases: NCI tumour cell line growth inhibition, 48 h
[1] = system: CAKI-1 renal
[2] = system: NCI-H226 lung
[3] = system: SK-MEL-2 melanoma
[4] = system: UO-31 renal
[5] = system: SK-MEL-28 melanoma
[6] = system: M19-MEL melanoma
[7] = system: OVCAR-4 ovarian
[8] = system: RXF 393 renal
[9] = system: CCRF-CEM leukemia
[10] = system: RPMI-8226 leukemia
[11] = system: A549 NSCLC
[12] = system: OVCAR-3 ovarian
[13] = system: SNB-19 CNS
[14] = system: KM12 colon
[15] = system: U251 CNS
[16] = system: LOX IMVI melanoma
[17] = system: A498 renal
[18] = system: NCI-H460 lung
[19] = system: 786-0 renal
[20] = system: ACHN renal
[21] = system: EKVX NSCLC
[22] = system: SF-539 CNS
[23] = system: HOP-92 NSCLC
[24] = system: UACC-257 melanoma
[25] = system: SNB-75 CNS
[26] = system: NCI-H522 lung
[27] = system: SK-OV-3 ovarian
[28] = system: OVCAR-5 ovarian
[29] = system: DMS 114 small cell lung
[30] = system: SF-295 CNS
[31] = system: HT29 colon
[32] = system: SK-MEL-5 melanoma
[33] = system: LXFL 529 NSCLC
[34] = system: OVCAR-8 ovarian
[35] = system: SN12C renal
[36] = system: SW-620 colon
[37] = system: SF-268 CNS
[38] = system: DLD-1 colon
[39] = system: UACC-62 melanoma
[40] = system: HOP-18 NSCLC
[41] = system: SNB-78 CNS
[42] = system: HCT-116 colon
[43] = system: NCI/ADR-RES ovarian
[44] = system: HCC-2998 colon
[45] = system: SR leukemia
[46] = system: TK-10 renal
[47] = system: P388 leukemia
[48] = system: MALME-3M melanoma
[49] = system: MOLT-4 leukemia
[50] = system: IGROV1 ovarian
[51] = system: HL-60(TB) leukemia
[52] = system: HCT-15 colon
[53] = system: KM20L2 colon
[54] = system: MCF7 breast
[55] = system: K-562 leukemia
[56] = system: SN12K1 renal
[57] = system: P388/ADR leukemia
[58] = system: HOP-62 NSCLC
[59] = system: XF 498 CNS
[60] = system: COLO 205 colon
[61] = system: NCI-H23 lung
[62] = system: DMS 273 small cell lung

COc1cccc2c1C(=O)c1c(O)c3c(c(O)c1C2=O)C[C@@](O)(C(C)O)C[C@@H]3OC1CC(N)C(O)C(C)O1 (some centres not stated)
TGI [1]: 3.16 µM and 3.53 µM | GI50 [2]: 0.808 µM | TGI [2]: 2.39 µM and 3.11 µM | GI50 [3]: 1.59 µM | TGI [3]: 3.5 µM and 3.45 µM | TGI [4]: 97.8 µM | GI50 [5]: 1.93 µM | TGI [5]: 4.05 µM and 7.36 µM | TGI [6]: 3.32 µM and 4.06 µM | GI50 [7]: 13.4 µM | TGI [7]: 35.2 µM | TGI [8]: 5.13 µM and 6.06 µM | GI50 [9]: 0.254 µM | TGI [9]: 1.33 µM | GI50 [10]: 0.289 µM and 0.502 µM | TGI [10]: 2.53 µM and 13 µM | GI50 [11]: 1.11 µM | TGI [11]: 6.02 µM and 29 µM | TGI [12]: 7.29 µM and 8.79 µM | GI50 [13]: 0.392 µM | TGI [13]: 7.81 µM and 5.57 µM | GI50 [14]: 2.75 µM | TGI [14]: 9.34 µM and 14.3 µM | GI50 [15]: 0.705 µM | TGI [15]: 7.87 µM and 3.44 µM | GI50 [16]: 1.29 µM | TGI [16]: 4.13 µM and 3.11 µM | GI50 [17]: 0.776 µM | TGI [17]: 8.09 µM and 4.62 µM | TGI [18]: 2.29 µM and 6.95 µM | TGI [19]: 4.11 µM | TGI [20]: 8.18 µM | GI50 [21]: 1.73 µM | TGI [21]: 4.91 µM and 9.53 µM | GI50 [22]: 0.665 µM | TGI [22]: 4.77 µM and 3.63 µM | GI50 [23]: 0.231 µM | TGI [23]: 3.37 µM and 2.11 µM | GI50 [24]: 2.41 µM | TGI [24]: 4.2 µM and 9.17 µM | GI50 [25]: 1.71 µM and 1.05 µM | TGI [25]: 6.25 µM and 4.31 µM | GI50 [26]: 0.228 µM | TGI [26]: 2.34 µM and 1.82 µM | TGI [27]: 8.2 µM and 18.6 µM | GI50 [28]: 3.69 µM | TGI [28]: 9.41 µM and 19.7 µM | GI50 [29]: 0.255 µM | TGI [29]: 1.48 µM and 1.14 µM | TGI [30]: 6.29 µM and 7.17 µM | GI50 [31]: 2.78 µM | TGI [31]: 36.6 µM | TGI [32]: 2.49 µM and 2.53 µM | TGI [33]: 7.62 µM | GI50 [34]: 2.39 µM | TGI [34]: 5.43 µM and > 52.5 µM | GI50 [35]: 1.49 µM | TGI [35]: 6.58 µM and 7.62 µM | GI50 [36]: 0.881 µM | TGI [36]: 8.28 µM and 21.4 µM | TGI [37]: 5.52 µM and 6.43 µM | GI50 [38]: 6.11 µM | TGI [38]: > 100 µM | TGI [39]: 3.01 µM and 3.29 µM | GI50 [40]: 4.96 µM and 1.13 µM | TGI [40]: 9.5 µM and 7.49 µM | TGI [41]: 7.32 µM and 8.53 µM | GI50 [42]: 1.38 µM | TGI [42]: 4.17 µM and 17.8 µM | TGI [43]: > 100 µM | GI50 [44]: 2.26 µM | TGI [44]: 5.26 µM and 7.66 µM | TGI [45]: 0.659 µM | TGI [46]: 8.11 µM | TGI [47]: 1.69 µM | GI50 [48]: 0.392 µM | TGI [48]: 1.72 µM and 1.93 µM | GI50 [49]: 0.0811 µM | TGI [50]: 9.22 µM and 18.4 µM | TGI [51]: 1.13 µM and 1.29 µM | GI50 [52]: 12.1 µM | TGI [52]: > 100 µM | GI50 [53]: 4.52 µM | TGI [53]: 42.9 µM | TGI [54]: 42.5 µM | GI50 [55]: 2.21 µM | TGI [55]: 8.19 µM and 26.5 µM | TGI [56]: 2.4 µM | TGI [57]: > 100 µM | TGI [58]: 4.3 µM and 4.42 µM | GI50 [59]: 0.221 µM | TGI [59]: 2.87 µM and 1.86 µM | GI50 [60]: 0.894 µM | TGI [60]: 4.95 µM and 10.5 µM | GI50 [61]: 1.27 µM | TGI [61]: 2.44 µM and 4.93 µM | TGI [62]: 7.24 µM and 6.65 µM
